The numbers were not newly measured in patent US20200138036A1, “FUMIGANT FORMULATION” (Linde Aktiengesellschaft, priority 2017, published 2020), which cites them from elsewhere.

In general, vapour pressure refers to the equilibrium pressure above the liquid or solid.

Structures can show the parent of a compound that is named as a salt.

For this series the following is noted: at 20° C.

Take `CCOC=O` [Ethyl formate]: the vapour pressure is reported as 25.9 kPa.
